Test results published in article PMC8831520, “Small molecule SWELL1 complex induction improves glycemic control and nonalcoholic fatty liver disease in murine Type 2 diabetes” (Nature Communications, 2022).

Key:
[1] = test system: endogenous SWELL1 in 3T3-F442A preadipocytes; assay: SWELL1 plasma membrane localization, immunofluorescence; type: cell-based, murine; details: 1 or 10 µM, 48 h, vs vehicle or Inactive 1
Description: 3T3-F442A preadipocytes (WT, KO) and differentiated adipocytes without or with SWELL1 overexpression (WT + SWELL1 O/E, KO + SWELL1 O/E) were prepared as described in the Cell culture section on collagen-coated coverslips. […] The cells were fixed in ice-cold acetone for 15 min at −20 °C and then washed four times with 1XPBS. […] Either anti-SWELL1 (1:400) or anti-Flag (1:1500, Sigma #F3165) antibody was added to the cells and incubated overnight at 4 °C. The cells were then washed three times (1XPBS) prior to and after the addition of 1:1000 Alexa Fluor 488/568 secondary antibody (anti-rabbit, #A11034 or anti-mouse, #A11004) for 1 h at RT. Cells were counterstained with nuclear TO-PRO-3 (Life Technologies, #T3605) or DAPI (Invitrogen, #D1306) staining (1 µM) for 20 min followed by three washes with 1XPBS. Coverslips were further mounted on slides with ProLong Diamond anti-fading media. All images were captured using Zeiss LSM700/LSM510 confocal microscope with 63X objective (NA 1.4). SWELL1 membrane localization was quantified by stacking all the z-images and converting it into a binary image where the cytoplasmic intensity per unit area was subtracted from the total cell intensity per unit area using ImageJ software.

[2] = test system: murine islets; assay: GSIS perifusion of palmitate-treated murine islets; type: cell-based, mouse; details: 10 µM for 4 days prior to and during 1 mM palmitate 16 h, washed off during GSIS
[3] = test system: T1, SWELL1 protein in adipose tissue; assay: SWELL1 protein in adipose tissue of treated T2D mice; type: in vivo, mouse
T1 construct: from tissue; host or cells: eWAT of HFD-fed C57BL/6 mice; inguinal fat of KKA^y mice
Description: All compounds were dissolved in Kolliphor® EL (Sigma, #C5135).
Adipocytes were washed twice in ice-cold phosphate buffer saline and lysed in RIPA buffer (150 mM NaCl, 20 mM HEPES, 1% NP-40, 5 mM EDTA, pH 7.4) with proteinase/phosphatase inhibitors (Roche). The cell lysate was further sonicated in 10 s cycle intervals 2–3 times and centrifuged at 18,407×g for 30 min at 4 °C and repeated one more time to remove the excess fat. The supernatant was collected and further estimated for protein concentration using a DC protein assay kit (Bio-Rad). Fat and liver tissues were homogenized and suspended in RIPA buffer with inhibitors and further processed in a similar fashion as described above. HUVECs were also prepared in a similar fashion except the lysates were spun only once to remove the cells debris to obtain the clear supernatant. For islets, either human or mouse islets were washed twice with phosphate buffer saline (PBS) and lysed using RIPA buffer containing protease and phosphatase inhibitors. The lysate was further clarified by freezing in liquid nitrogen for about 10 s for three cycles. The supernatant was collected from the whole lysate centrifuged at 16,260×g for 20 min at 4 °C. […] The images were further analyzed for band intensities using ImageJ software. […]

[4] = In vivo pharmacokinetics; set-up: species or system mouse; details: for T-half / AUC(0-inf) / Cmax / Oral Bioavailability (AUCp.o./AUCi.v.): 5 mg/kg; for T-half / AUC(0-inf) / Cmax / Oral Bioavailability (AUCp.o./AUCi.v.) / time plasma concentrations exceed those sufficient for induction of SWELL1 signaling activity (>~100 nM): mice; for T-half / AUC(0-inf) / Cmax: plasma; for AUC(0-inf) / Cmax: male, C57/BL6, mouse; for time plasma concentrations exceed those sufficient for induction of SWELL1 signaling activity (>~100 nM): 5 mg/kg i.p. or p.o.
Description: Male C57/BL6 mice were used in the study and assessed for a single dose (5 mg/kg) administration. The compounds were prepared in Cremaphor for i.p. and p.o dose routes and in 5% ethanol, 10% Tween-20, and water mix for i.v. route at a final concentration of 1 mg/mL. […] The blood samples were collected in tubes with K2 EDTA anticoagulant and further processed to collect plasma by centrifugation at 1383×g at 5 °C for 10 min. Samples were further processed in LC/MS to determine the concentration of the compounds. Non-compartmental analysis was performed to obtain the PK parameters using the PKPlus software package (Simulation Plus). The area under the plasma concentration-time curve (AUCinf) was calculated from time 0 to infinity where the Cmax is the maximal concentration achieved in plasma and t1/2 is the terminal elimination half-life. Oral bioavailability was calculated as AUCOral/AUCIV*100.

Structure (SMILES)	plasma membrane (PM) localization of endogenous SWELL1 [1]	glucose-stimulated insulin secretion after palmitate [2]	SWELL1 expression in adipose tissue ([3]; HFD-fed T2D mice, 5 mg/kg i.p.)	SWELL1 expression in adipose tissue ([3]; KKAy T2D mice, 5 mg/kg i.p. × 5 days)	T-half ([4]; Intraperitoneal) [h]	T-half ([4]; Intravenous) [h]	T-half ([4]; Oral) [h]	PK in adipose tissue ([4]; iWAT, 5 mg/kg i.p. and p.o.)	AUC(0-inf) ([4]; ip, Intraperitoneal) [ng·h/mL]	Cmax ([4]; ip, Intraperitoneal) [ng/mL]	AUC(0-inf) ([4]; Intravenous) [ng·h/mL]	Cmax ([4]; Intravenous) [ng/mL]	AUC(0-inf) ([4]; Oral) [ng·h/mL]	Cmax ([4]; Oral) [ng/mL]	Oral Bioavailability (AUCp.o./AUCi.v.) [4] [%]	time plasma concentrations exceed those sufficient for induction of SWELL1 signaling activity (>~100 nM) [4] [h]
CCCCC1(C2CCCC2)Cc2cc(OCCCC(=O)O)c(Cl)c(Cl)c2C1=O (stereo not shown) [SN-401, 4-((2-butyl-6,7-dichloro-2-cyclopentyl-1-oxo-2,3-dihydro-1H-inden-5-yl)oxy)butanoic acid]	enhanced	normalized	twofold	threefold	2.056	1.428	2.585	closely tracks serum concentrations	23000	4370	5960	5440	4680	781	79	8 to 12
CCCCC1(C2CCCC2)Cc2cc(OCCCCCC(=O)O)c(Cl)c(Cl)c2C1=O (stereo not shown) [SN-406, 6-((2-butyl-6,7-dichloro-2-cyclopentyl-1-oxo-2,3-dihydro-1H-inden-5-yl)oxy)hexanoic acid]	enhanced	–	–	–	1.809	0.7689	2.058	–	18200	4300	6530	15100	3130	661	48	8 to 12
